This is an account of results in patent US12583851B2, “Heteroaryl-substituted pyrazine derivatives as pesticides” (Elanco Animal Health GmbH, priority 2019, dated 2026).

Assay [1] relates to larvae of the banded cucumber beetle (Diabrotica balteata). Nature of the assay: Diabrotica balteata spray test. The following applies: 168 h, after 7 days, read-out: efficacy (seedling growth); for pest or weed control at 6.4 µg/disc, 20 g/ha: 20 g/ha (=6.4 μg/well); for pest or weed control at 32 µg/disc, 100 g/ha: 100 g/ha (=32 μg/well). It is filed as in vivo. The method, then: Diabrotica balteata—Spray Test
Solvent: 78.0 parts by weight of acetone • • 1.5 parts by weight of dimethylformamide
Emulsifier: alkylarylpolyglycol ether
To produce a suitable preparation of active compound, 1 part by weight of active compound is mixed with the stated amount of solvent, and the concentrate is diluted with water, containing an emulsifier concentration of 1000 ppm, to the desired concentration. Further test concentrations are prepared by dilution with emulsifier containing water.
Soaked wheat seeds (Triticum aestivum) are placed in a multiple well plate filled with agar and some water and are incubated for 1 day to germinate (5 seeds per well). The germinated wheat seeds are sprayed with a test solution containing the desired concentration of the active ingredient. Afterwards each unit is infected with 10-20 larvae of the banded cucumber beetle (Diabrotica balteata).
After 7 days efficacy in % is determined. 100% means all the seedlings have grown up like in the untreated, uninfected control; 0% means none of the seedlings have grown.

In assay [2] the test system is Rhipicephalus (Boophilus) microplus larvae (strain Parkhurst, resistant against synthetic pyrethroids). Kind of assay: Rhipicephalus (Boophilus) microplus in-vitro contact test, larval cattle tick. The assay is classed as in vivo. As to conditions: after 48 hours, read-out: efficacy (larvae dead or moribund); for pest or weed control at 1 µg/cm2, 100 g/ha: 1 μg/cm^2 (=100 g/ha); for pest or weed control at 5 µg/cm2, 500 g/ha: 5 μg/cm^2 (=500 g/ha). The method, then:
Rhipicephalus (Boophilus) microplus—In-Vitro Contact Tests Larval Cattle Tick (Strain Parkhurst, Resistant Against Synthetic Pyrethroids)
9 mg compound is solved in 1 mL acetone and diluted with acetone to the desired concentration. […] the test solution is filled in 25 mL glass test tubes and homogeneously distributed on the inner walls by rotation and tilting on a shaking device (2 h at 30 rpm). With a compound concentration of 900 ppm, an inner surface of 44.7 cm^2 and a homogeneous distribution, a dose of 5 μg/cm^2 is achieved.
After the solvent has evaporated, each test tube is filled with 20-50 cattle tick larvae (Rhipicephalus microplus), closed with a perforated lid and incubated in a horizontal position at 85% relative humidity and 27° C. in an incubator. After 48 hours efficacy is determined. The larvae are patted on the ground of the tubes and negative geotactic behaviour is recorded.
An efficacy of 100% means all larvae are dead or moribund; 0% means no larvae are dead or moribund.

In the case of `CC(NC(=O)c1cc(Cl)cc(C#N)c1)c1nccnc1-c1nccs1` (racemic) [Example I-57, (rac)-3-Chloro-5-cyano-N-{1-[3-(1,3-thiazol-2-yl)pyrazin-2-yl]ethyl}benzamide], the pest or weed control at 6.4 µg/disc, 20 g/ha in assay [1] amounted to 80%.

As for `CC(NC(=O)c1cc(Cl)cc(Br)c1)c1nccnc1-c1ccc(C(F)(F)F)cn1` (racemic) [Example I-43, (rac)-3-Bromo-5-chloro-N-[1-{3-[5-(trifluoromethyl)pyridin-2-yl]pyrazin-2-yl}ethyl]benzamide], the pest or weed control at 32 µg/disc, 100 g/ha in assay [1] is 80%.

As to `CC(NC(=O)c1cc(C(F)(F)F)cc(C(F)(F)F)c1)c1nccnc1-n1cc(C(=O)N2CCCC2)cn1` (racemic) [Example I-91, N-[(rac)-1-{3-[4-(Pyrrolidine-1-carbonyl)-1H-pyrazol-1-yl]pyrazin-2-yl}ethyl]-3,5-bis(trifluoromethyl)benzamide], in assay [2], the pest or weed control at 1 µg/cm2, 100 g/ha is 100% and the pest or weed control at 5 µg/cm2, 500 g/ha was 100%.

In the case of `Cc1cnc(C(C)NC(=O)c2cc(C(F)(F)F)cc(C(F)(F)F)c2)c(-c2ncc(C(=O)N3C[C@@H](C)O[C@@H](C)C3)s2)n1` (mixture of isomers) [Example I-126, (rac)-N-[1-(3-{5-[cis-2,6-Dimethylmorpholine-4-carbonyl]-1,3-thiazol-2-yl}-5-methylpyrazin-2-yl)ethyl]-3,5-bis(trifluoromethyl)benzamide], in assay [2], the pest or weed control at 1 µg/cm2, 100 g/ha was 100% and the pest or weed control at 5 µg/cm2, 500 g/ha turned out to be 100%. Moreover, the pest or weed control at 32 µg/disc, 100 g/ha in assay [1] worked out at 100%.

Turning to `COc1ccc(-c2nccnc2C(C)NC(=O)c2cc(C(F)(F)F)cc(C(F)(F)F)c2)nc1` (centres unmarked) [Example I-26], the pest or weed control at 5 µg/cm2, 500 g/ha in assay [2] was 90%. Also, in assay [1], the pest or weed control at 6.4 µg/disc, 20 g/ha worked out at 100% and the pest or weed control at 32 µg/disc, 100 g/ha was 100%.

`CC(NC(=O)c1cc(C(F)(F)F)cc(C(F)(F)F)c1)c1nccnc1-c1ccc(C(=O)N2CCCC2)cn1` (racemic) [Example I-37, (rac)-N-[1-{3-[5-(Pyrrolidine-1-carbonyl)pyridin-2-yl]pyrazin-2-yl}ethyl]-3,5-bis(trifluoromethyl)benzamide]: in assay [2], the pest or weed control at 1 µg/cm2, 100 g/ha was 100% and the pest or weed control at 5 µg/cm2, 500 g/ha was found to be 100%.

For the compound `CC(NC(=O)c1cc(Cl)cc(OC(F)(F)F)c1)c1nccnc1-n1cc(C#N)cn1` (racemic) [Example I-104, (rac)-3-Chloro-N-{1-[3-(4-cyano-1H-pyrazol-1-yl)pyrazin-2-yl]ethyl}-5-(trifluoromethoxy)benzamide], in assay [1], the pest or weed control at 6.4 µg/disc, 20 g/ha was determined as 100% and the pest or weed control at 32 µg/disc, 100 g/ha was 100%.

As to `COc1ccc(-c2nccnc2C(C)NC(=O)c2cc(Cl)cc(C(F)(F)F)c2)nc1` (centres unmarked) [Example I-29], the pest or weed control at 5 µg/cm2, 500 g/ha in assay [2] stood at 90%. In addition, in assay [1], the pest or weed control at 6.4 µg/disc, 20 g/ha worked out at 100% and the pest or weed control at 32 µg/disc, 100 g/ha was 100%.

Regarding `CC(NC(=O)c1cc(C(F)(F)F)cc(C(F)(F)F)c1)c1nccnc1-n1cc(Cl)cn1` (racemic) [Example I-96, N-{(rac)-1-[3-(4-Chloro-1H-pyrazol-1-yl)pyrazin-2-yl]ethyl}-3,5-bis(trifluoromethyl)benzamide], in assay [1], the pest or weed control at 6.4 µg/disc, 20 g/ha was determined as 100% and the pest or weed control at 32 µg/disc, 100 g/ha stood at 100%.

As for `CC(NC(=O)c1cc(Br)cc(OC(F)(F)F)c1)c1nccnc1-c1ccc(C(F)(F)F)cn1` (racemic) [Example I-44, (rac)-3-Bromo-5-(trifluoromethoxy)-N-[1-{3-[5-(trifluoromethyl)pyridin-2-yl]pyrazin-2-yl}ethyl]benzamide], the pest or weed control at 32 µg/disc, 100 g/ha in assay [1] stood at 100%.

As for `CC(NC(=O)c1cncc(C(C)(C)C)c1)c1nccnc1-c1nccs1` (racemic) [Example I-6, (rac)-5-(tert-Butyl)-N-(1-(3-(thiazol-2-yl)pyrazin-2-yl)ethyl)nicotinamide], in assay [2], the pest or weed control at 1 µg/cm2, 100 g/ha turned out to be 80% and the pest or weed control at 5 µg/cm2, 500 g/ha is 80%.

As to `CC(NC(=O)c1cc(Br)cc(I)c1)c1nccnc1-n1cc(C#N)cn1` (racemic) [Example I-112, (rac)-3-Bromo-N-{1-[3-(4-cyano-1H-pyrazol-1-yl)pyrazin-2-yl]ethyl}-5-iodobenzamide], the pest or weed control at 32 µg/disc, 100 g/ha in assay [1] came to 100%.

Consider `CC(NC(=O)c1cc(Cl)cc(C#N)c1)c1nccnc1-c1ccccn1` (centres unmarked) [Example I-18], for which the pest or weed control at 32 µg/disc, 100 g/ha in assay [1] is 100%.

As to `CC(NC(=O)c1cc(Cl)cc(C#N)c1)c1nccnc1-c1ccc(C(F)(F)F)cn1` (racemic) [Example I-40, (rac)-3-Chloro-5-cyano-N-[1-{3-[5-(trifluoromethyl)pyridin-2-yl]pyrazin-2-yl}ethyl]benzamide], the pest or weed control at 32 µg/disc, 100 g/ha in assay [1] turned out to be 100%.

Regarding `CC(NC(=O)c1cc(C(F)(F)F)cc(C(F)(F)F)c1)c1nccnc1-c1ncc(C(=O)N2CCCC2)s1` (racemic) [Example I-71, (rac)-N-[1-{3-[5-(Pyrrolidine-1-carbonyl)-1,3-thiazol-2-yl]pyrazin-2-yl}ethyl]-3,5-bis(trifluoromethyl)benzamide], in assay [1], the pest or weed control at 6.4 µg/disc, 20 g/ha is 100% and the pest or weed control at 32 µg/disc, 100 g/ha is 100%.

`Cc1cnc(-c2ncc(C(=O)N3C[C@@H](C)O[C@@H](C)C3)s2)c(C(C)NC(=O)c2cc(C(F)(F)F)cc(C(F)(F)F)c2)n1` (mixture of isomers) [Example I-127, (rac)-N-[1-(3-{5-[cis-2,6-dimethylmorpholine-4-carbonyl]-1,3-thiazol-2-yl}-6-methylpyrazin-2-yl)ethyl]-3,5-bis(trifluoromethyl)benzamide]: in assay [2], the pest or weed control at 1 µg/cm2, 100 g/ha stood at 100% and the pest or weed control at 5 µg/cm2, 500 g/ha was determined as 100%.

As to `CC(NC(=O)c1cc(Cl)cc(C#N)c1)c1nccnc1-n1cc(C#N)cn1` (racemic) [Example I-121, (rac)-3-Chloro-5-cyano-N-{1-[3-(4-cyano-1H-pyrazol-1-yl)pyrazin-2-yl]ethyl}benzamide], the pest or weed control at 32 µg/disc, 100 g/ha in assay [1] came out at 100%.

In the case of `CC(NC(=O)c1cc(Br)cc(OC(F)(F)F)c1)c1nccnc1-n1cc(Cl)cn1` (racemic) [Example I-97, (rac)-3-Bromo-N-{1-[3-(4-chloro-1H-pyrazol-1-yl)pyrazin-2-yl]ethyl}-5-(trifluoromethoxy)benzamide], the pest or weed control at 32 µg/disc, 100 g/ha in assay [1] came out at 100%.

With `CC(NC(=O)c1cc(C(F)(F)F)cc(C(F)(F)F)c1)c1nccnc1-c1ncc(C(=O)N2CCC[Si](C)(C)C2)s1` (racemic) [Example I-70, (rac)-N-[1-{3-[5-(3,3-Dimethyl-1,3-azasilinane-1-carbonyl)-1,3-thiazol-2-yl]pyrazin-2-yl}ethyl]-3,5-bis(trifluoromethyl)benzamide], in assay [1], the pest or weed control at 32 µg/disc, 100 g/ha amounted to 100%.
